Experimental data as given in article PMC7770045 (Biochemical pharmacology, 2020).

Target: serotonin transporter (SERT) (Rattus norvegicus, UniProt P31652)
Sequence (P31652 whole entry): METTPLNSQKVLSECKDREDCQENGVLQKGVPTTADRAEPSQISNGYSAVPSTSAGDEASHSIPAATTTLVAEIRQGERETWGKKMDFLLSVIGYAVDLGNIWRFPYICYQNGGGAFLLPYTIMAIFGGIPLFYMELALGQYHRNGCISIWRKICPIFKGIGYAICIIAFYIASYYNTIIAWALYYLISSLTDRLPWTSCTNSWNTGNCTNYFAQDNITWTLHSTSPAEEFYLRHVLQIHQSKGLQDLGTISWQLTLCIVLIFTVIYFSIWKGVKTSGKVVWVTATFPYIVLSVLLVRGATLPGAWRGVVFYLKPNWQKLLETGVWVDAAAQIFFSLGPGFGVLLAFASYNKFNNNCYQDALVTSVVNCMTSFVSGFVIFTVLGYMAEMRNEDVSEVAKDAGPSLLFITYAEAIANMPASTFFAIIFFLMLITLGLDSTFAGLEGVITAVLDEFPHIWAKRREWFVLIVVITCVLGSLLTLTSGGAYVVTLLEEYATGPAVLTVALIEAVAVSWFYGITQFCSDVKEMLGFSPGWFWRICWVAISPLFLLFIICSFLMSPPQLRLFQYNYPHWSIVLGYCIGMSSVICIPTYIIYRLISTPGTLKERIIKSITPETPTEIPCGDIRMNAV

## NCCc1c[nH]c2ccc(O)cc12 [Serotonin]
  Km: 2.21 µM
